According to patent US20250114374A1, “BCL-2 INHIBITORS” (Newave Pharmaceutical Inc., priority 2021, published 2025):
pIC50: −log10 of the molar value. Where two headings read alike, the source gives them in different places.

Tested on: RS4; 11 with G101V mutation
Test: In vitro anti-proliferation assay (ATPlite luminescence) in BCL-2-dependent ALL cell line RS4;11 with G101V mutation
Assay type: cell-based
Details: read-out: RS411-G101V IC50
In short: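 IC50 came from luminescent ATP quantification (ATPlite) following cell lysis. Compound dose ranges were applied for roughly 72 h to about 1×10^4 G101V-mutant RS4;11 cells per well, in 10% FBS medium.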

[1] = cellular anti-proliferative IC50, about 72 hours, medium with 10% FBS, ATPlite

Compound | pIC50 (Homo sapiens, RS4-11, 72 h) | pIC50 [1]
CC(C)Oc1ccccc1[C@@H]1CN(S(=O)(=O)c2ccc(F)c(F)c2)CCN1C1CC2(CCN(c3ccc(C(=O)NS(=O)(=O)c4cc5c(c([N+](=O)[O-])c4)N[C@H](C4CCOCC4)CO5)c(N4c5cc6cc[nH]c6nc5O[C@H]5COCC[C@@H]54)c3)CC2)C1 [Example 245, 4-(2-((R)-4-((3,4-difluorophenyl)sulfonyl)-2-(2-isopropoxyphenyl)piperazin-1-yl)-7-azaspiro[3.5]nonan-7-yl)-N-(((R)-5-nitro-3-(tetrahydro-2H-pyran-4-yl)-3,4-dihydro-2H-benzo[b][1,4]oxazin-7-yl)sulfonyl)-2-((5aS,9aR)-6,7,9,9a-tetrahydro-1H-pyrano[3,4-b]pyrrolo[3′,2′:5,6]pyrido[3,2-e][1,4]oxazin-5(5aH)-yl)benzamide] | 6.54 | 
CC[C@H](c1ccc(F)c(F)c1)N1CCN(C2CC3(CCN(c4ccc(C(=O)NS(=O)(=O)c5cc6c(c([N+](=O)[O-])c5)N[C@H](C5CCOCC5)CO6)c(N5c6cc7cc[nH]c7nc6O[C@H]6COCC[C@@H]65)c4)CC3)C2)[C@H](c2ccccc2OC(C)C)C1 [Example 246, 4-(2-((R)-4-((R)-1-(3,4-difluorophenyl)propyl)-2-(2-isopropoxyphenyl)piperazin-1-yl)-7-azaspiro[3.5]nonan-7-yl)-N-(((R)-5-nitro-3-(tetrahydro-2H-pyran-4-yl)-3,4-dihydro-2H-benzo[b][1,4]oxazin-7-yl)sulfonyl)-2-((5aS,9aR)-6,7,9,9a-tetrahydro-1H-pyrano[3,4-b]pyrrolo[3′,2′:5,6]pyrido[3,2-e][1,4]oxazin-5(5aH)-yl)benzamide] | 6.68 | 
CC[C@@H](c1ccc(F)c(F)c1)N1CCN(C2CC3(CCN(c4ccc(C(=O)NS(=O)(=O)c5cc6c(c([N+](=O)[O-])c5)N[C@H](C5CCOCC5)CO6)c(N5c6cc7cc[nH]c7nc6O[C@H]6COCC[C@@H]65)c4)CC3)C2)[C@H](c2ccccc2OC(C)C)C1 [Example 247, 4-(2-((R)-4-((S)-1-(3,4-difluorophenyl)propyl)-2-(2-isopropoxyphenyl)piperazin-1-yl)-7-azaspiro[3.5]nonan-7-yl)-N-(((R)-5-nitro-3-(tetrahydro-2H-pyran-4-yl)-3,4-dihydro-2H-benzo[b][1,4]oxazin-7-yl)sulfonyl)-2-((5aS,9aR)-6,7,9,9a-tetrahydro-1H-pyrano[3,4-b]pyrrolo[3′,2′:5,6]pyrido[3,2-e][1,4]oxazin-5(5aH)-yl)benzamide] | 7.34 | 
CC(C)Oc1ccccc1[C@@H]1CN([C@@H]2COCc3c2ccc(F)c3F)CCN1C1CC2(CCN(c3ccc(C(=O)NS(=O)(=O)c4cc5c(c([N+](=O)[O-])c4)N[C@H](C4CCOCC4)CO5)c(N4c5cc6cc[nH]c6nc5O[C@H]5COCC[C@@H]54)c3)CC2)C1 [Example 248, 4-{2-[(2R)-4-[(4S)-7,8-difluoro-3,4-dihydro-1H-2-benzopyran-4-yl]-2-(2-isopropoxyphenyl)piperazin-1-yl]-7-azaspiro[3.5]nonan-7-yl}-2-[(3R,8S)-2,5-dioxa-9,15,17-triazatetracyclo[8.7.0.0^{3,8}.0^{12,16}]heptadeca-1(10),11,13,16-tetraen-9-yl]-N-[(3R)-5-nitro-3-(oxan-4-yl)-3,4-dihydro-2H-1,4-benzoxazin-7-ylsulfonyl]benzamide] |  | 8.01
CC(C)Oc1ccccc1[C@@H]1CN([C@H]2COCc3c2ccc(F)c3F)CCN1C1CC2(CCN(c3ccc(C(=O)NS(=O)(=O)c4cc5c(c([N+](=O)[O-])c4)N[C@H](C4CCOCC4)CO5)c(N4c5cc6cc[nH]c6nc5O[C@H]5COCC[C@@H]54)c3)CC2)C1 [Example 249, 4-{2-[(2R)-4-[(4R)-7,8-difluoro-3,4-dihydro-1H-2-benzopyran-4-yl]-2-(2-isopropoxyphenyl)piperazin-1-yl]-7-azaspiro[3.5]nonan-7-yl}-2-[(3R,8S)-2,5-dioxa-9,15,17-triazatetracyclo[8.7.0.0^{3,8}.0^{12,16}]heptadeca-1(10),11,13,16-tetraen-9-yl]-N-[(3R)-5-nitro-3-(oxan-4-yl)-3,4-dihydro-2H-1,4-benzoxazin-7-ylsulfonyl]benzamide] |  | 7.92
COc1c(N2CCOCC2)ncc2c1COC[C@H]2N1CCN(C2CC3(CCN(c4ccc(C(=O)NS(=O)(=O)c5cc6c(c([N+](=O)[O-])c5)N[C@H](C5CCOCC5)CO6)c(N5c6cc7cc[nH]c7nc6O[C@H]6COCC[C@@H]65)c4)CC3)C2)[C@H](c2ccccc2OC(C)C)C1 [Example 250, 2-[(3R,8S)-2,5-dioxa-9,15,17-triazatetracyclo[8.7.0.0^{3,8}.0^{12,16}]heptadeca-1(10),11,13,16-tetraen-9-yl]-4-{2-[(2R)-2-(2-isopropoxyphenyl)-4-[(4S)-8-methoxy-7-(morpholin-4-yl)-1H,3H,4H-pyrano[4,3-c]pyridin-4-yl]piperazin-1-yl]-7-azaspiro[3.5]nonan-7-yl}-N-[(3R)-5-nitro-3-(oxan-4-yl)-3,4-dihydro-2H-1,4-benzoxazin-7-ylsulfonyl]benzamide] |  | 8.00
COc1c(N2CCOC[C@@H]2C)ncc2c1COC[C@@H]2N1CCN(C2CC3(CCN(c4ccc(C(=O)NS(=O)(=O)c5cc6c(c([N+](=O)[O-])c5)N[C@H](C5CCOCC5)CO6)c(N5c6cc7cc[nH]c7nc6O[C@H]6COCC[C@@H]65)c4)CC3)C2)[C@H](c2ccccc2OC(C)C)C1 [Example 251, 2-[(3R,8S)-2,5-dioxa-9,15,17-triazatetracyclo[8.7.0.0^{3,8}.0^{12,16}]heptadeca-1(10),11,13,16-tetraen-9-yl]-4-{2-[(2R)-2-(2-isopropoxyphenyl)-4-[(4R)-8-methoxy-7-[(3S)-3-methylmorpholin-4-yl]-1H,3H,4H-pyrano[4,3-c]pyridin-4-yl]piperazin-1-yl]-7-azaspiro[3.5]nonan-7-yl}-N-[(3R)-5-nitro-3-(oxan-4-yl)-3,4-dihydro-2H-1,4-benzoxazin-7-ylsulfonyl]benzamide] |  | 7.57
Cc1ccccc1[C@@H]1CN(Cc2cnc(N3CCOC[C@@H]3C)c3c2C(C)(C)CCO3)CCN1C1CC2(CCN(c3ccc(C(=O)NS(=O)(=O)c4cc5c(c([N+](=O)[O-])c4)N[C@H](C4CCOCC4)CO5)c(N4c5cc6cc[nH]c6nc5O[C@H]5COCC[C@@H]54)c3)CC2)C1 [Example 252, 4-(2-((R)-4-((4,4-dimethyl-8-((S)-3-methylmorpholino)-3,4-dihydro-2H-pyrano[2,3-c]pyridin-5-yl)methyl)-2-(o-tolyl)piperazin-1-yl)-7-azaspiro[3.5]nonan-7-yl)-N-(((R)-5-nitro-3-(tetrahydro-2H-pyran-4-yl)-3,4-dihydro-2H-benzo[b][1,4]oxazin-7-yl)sulfonyl)-2-((5aS,9aR)-6,7,9,9a-tetrahydro-1H-pyrano[3,4-b]pyrrolo[3′,2′:5,6]pyrido[3,2-e][1,4]oxazin-5(5aH)-yl)benzamide] | 8.73 | 
CC(C)Oc1ccccc1[C@@H]1CN(Cc2cccnc2)CCN1C1CC2(CCN(c3ccc(C(=O)NS(=O)(=O)c4cc5c(c([N+](=O)[O-])c4)N[C@H](C4CCOCC4)CO5)c(N4c5cc6cc[nH]c6nc5O[C@H]5COCC[C@@H]54)c3)CC2)C1 [Example 253, 4-(2-((R)-2-(2-isopropoxyphenyl)-4-(pyridin-3-ylmethyl)piperazin-1-yl)-7-azaspiro[3.5]nonan-7-yl)-N-(((R)-5-nitro-3-(tetrahydro-2H-pyran-4-yl)-3,4-dihydro-2H-benzo[b][1,4]oxazin-7-yl)sulfonyl)-2-((5aS,9aR)-6,7,9,9a-tetrahydro-1H-pyrano[3,4-b]pyrrolo[3′,2′:5,6]pyrido[3,2-e][1,4]oxazin-5(5aH)-yl)benzamide] | 7.99 | 
Cc1ccc(CN2CCN(C3CC4(CCN(c5ccc(C(=O)NS(=O)(=O)c6cc7c(c([N+](=O)[O-])c6)N[C@H](C6CCOCC6)CO7)c(N6c7cc8cc[nH]c8nc7O[C@H]7COCC[C@@H]76)c5)CC4)C3)[C@H](c3ccccc3OC(C)C)C2)cn1 [Example 254, 4-(2-((R)-2-(2-isopropoxyphenyl)-4-((6-methylpyridin-3-yl)methyl)piperazin-1-yl)-7-azaspiro[3.5]nonan-7-yl)-N-(((R)-5-nitro-3-(tetrahydro-2H-pyran-4-yl)-3,4-dihydro-2H-benzo[b][1,4]oxazin-7-yl)sulfonyl)-2-((5aS,9aR)-6,7,9,9a-tetrahydro-1H-pyrano[3,4-b]pyrrolo[3′,2′:5,6]pyrido[3,2-e][1,4]oxazin-5(5aH)-yl)benzamide] | 8.50 | 
CC(C)Oc1ccccc1[C@@H]1CN(Cc2ccc(C(C)C)nc2)CCN1C1CC2(CCN(c3ccc(C(=O)NS(=O)(=O)c4cc5c(c([N+](=O)[O-])c4)N[C@H](C4CCOCC4)CO5)c(N4c5cc6cc[nH]c6nc5O[C@H]5COCC[C@@H]54)c3)CC2)C1 [Example 255, 2-[(3R,8S)-2,5-dioxa-9,15,17-triazatetracyclo[8.7.0.0^{3,8}.0^{12,16}]heptadeca-1(10),11,13,16-tetraen-9-yl]-4-{2-[(2R)-2-(2-isopropoxyphenyl)-4-[(6-isopropylpyridin-3-yl)methyl]piperazin-1-yl]-7-azaspiro[3.5]nonan-7-yl}-N-[(3R)-5-nitro-3-(oxan-4-yl)-3,4-dihydro-2H-1,4-benzoxazin-7-ylsulfonyl]benzamide] |  | 8.19
CC(C)Oc1ccccc1[C@@H]1CN(Cc2ccc(C(C)(C)C)nc2)CCN1C1CC2(CCN(c3ccc(C(=O)NS(=O)(=O)c4cc5c(c([N+](=O)[O-])c4)N[C@H](C4CCOCC4)CO5)c(N4c5cc6cc[nH]c6nc5O[C@H]5COCC[C@@H]54)c3)CC2)C1 [Example 256, 4-(2-((R)-4-((6-(tert-butyl)pyridin-3-yl)methyl)-2-(2-isopropoxyphenyl)piperazin-1-yl)-7-azaspiro[3.5]nonan-7-yl)-N-(((R)-5-nitro-3-(tetrahydro-2H-pyran-4-yl)-3,4-dihydro-2H-benzo[b][1,4]oxazin-7-yl)sulfonyl)-2-((5aS,9aR)-6,7,9,9a-tetrahydro-1H-pyrano[3,4-b]pyrrolo[3′,2′:5,6]pyrido[3,2-e][1,4]oxazin-5(5aH)-yl)benzamide] | 7.93 | 
